Columns and labels:
[1] = test system: HIV-1 mutant L100I; experiment: microbe, parasite or virus in culture; conditions: Human immunodeficiency virus 1, MT4, read-out: EC50 L100I
[2] = test system: HIV-1 mutant Y188L; experiment: microbe, parasite or virus in culture; conditions: Human immunodeficiency virus 1, MT4, read-out: EC50 Y188L
[3] = Cytotoxicity in uninfected; conditions: human, mock-infected (uninfected) MT-4 cells, CC50, uninfected MT-4 cells, MTT
[4] = test system: WT HIV-1; experiment: microbe, parasite or virus in culture; conditions: Human immunodeficiency virus 1, MT4, read-out: WT EC50
[5] = test system: HIV-1 mutant E138K; experiment: microbe, parasite or virus in culture; conditions: Human immunodeficiency virus 1, MT4, read-out: EC50 E138K
[6] = test system: HIV-1 mutant K103N; experiment: microbe, parasite or virus in culture; conditions: Human immunodeficiency virus 1, MT4, read-out: EC50 K103N
[7] = test system: WT HIV-1; conditions: Selectivity index CC50/EC50 (WT)
[8] = target: WT HIV-1 RT (Human immunodeficiency virus type 1 group M subtype B, UniProt P03366); experiment: biochemical
[9] = target: CYP2D6 (Homo sapiens, UniProt P10635); experiment: biochemical
CYP2D6, sequence (P10635 whole entry): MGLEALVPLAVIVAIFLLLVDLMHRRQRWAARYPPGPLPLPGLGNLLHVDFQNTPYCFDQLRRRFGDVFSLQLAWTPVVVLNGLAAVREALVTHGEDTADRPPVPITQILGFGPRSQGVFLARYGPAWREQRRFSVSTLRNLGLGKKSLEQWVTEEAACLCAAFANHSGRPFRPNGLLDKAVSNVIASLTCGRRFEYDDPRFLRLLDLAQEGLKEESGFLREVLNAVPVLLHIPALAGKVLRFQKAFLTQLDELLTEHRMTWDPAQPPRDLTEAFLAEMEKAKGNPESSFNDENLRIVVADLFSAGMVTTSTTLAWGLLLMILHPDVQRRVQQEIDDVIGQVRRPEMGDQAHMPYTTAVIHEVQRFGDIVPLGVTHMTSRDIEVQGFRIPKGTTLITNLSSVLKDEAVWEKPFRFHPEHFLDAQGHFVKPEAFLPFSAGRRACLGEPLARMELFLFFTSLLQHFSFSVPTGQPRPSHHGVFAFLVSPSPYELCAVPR

SMILES	EC50 [1]	EC50 [2]	CC50 at 5 days [3]	EC50 [4]	EC50 [5]	EC50 [6]	SI [7]	IC50 [8]	IC50 [9]
N#Cc1ccc(Nc2ncc(CO)c(Oc3ccc(-c4ccncc4)cc3F)n2)cc1 [9j, 4-((4-(2-Fluoro-4-(pyridin-4-yl)phenoxy)-5-(hydroxymethyl)pyrimidin-2-yl)amino)benzonitrile]	327 ± 44.9 nM	> 48400 nM	> 48400 nM	4.7 ± 0.7 nM	42.4 ± 6.7 nM	35.1 ± 8.1 nM	>10,256	–	–
N#Cc1ccc(Nc2ncc(CO)c(Oc3ccc(-c4ccc(C#N)cc4)cc3Cl)n2)cc1 [9e, 3′-Chloro-4′-((2-((4-cyanophenyl)amino)-5-(hydroxymethyl)pyrimidin-4-yl)oxy)-[1,1′-biphenyl]-4-carbonitrile]	18.5 ± 3.6 nM	564 ± 97 nM	> 44100 nM	2.6 ± 0.5 nM	11 ± 2.1 nM	3.8 ± 0.2 nM	>17,021	29 ± 3 nM	–
Cc1cc(-c2ccc(C#N)cc2)ccc1Oc1nc(Nc2ccc(C#N)cc2)ncc1CO [9b, 4′-((2-((4-Cyanophenyl)amino)-5-(hydroxymethyl)pyrimidin-4-yl)oxy)-3′-methyl-[1,1′-biphenyl]-4-carbonitrile]	18.1 ± 3.4 nM	144 ± 25.9 nM	> 46200 nM	1.2 ± 0.1 nM	3.6 ± 0.7 nM	2.9 ± 0.1 nM	>38,095	27 ± 2 nM	–
COc1ccc2c(c1)[C@]13CCCC[C@@H]1[C@H](C2)N(C)CC3 [Dextromethorphan]	–	–	–	–	–	–	–	–	39.7 nM
Cc1ccnc2c1NC(=O)c1cccnc1N2C1CC1 [NVP, nevirapine, reference compound]	2100 ± 750 nM	> 15900 nM	> 15000 nM	–	2100 ± 30 nM	> 10100 nM	–	–	–
Cc1cc(C#N)cc(C)c1Oc1nc(Nc2ccc(C#N)cc2)nc(N)c1Br [ETR, etravirine, reference compound]	7 nM	20 ± 10 nM	> 4600 nM	6 nM	7 ± 10 nM	3 nM	–	–	–
O=C1Nc2ccc(Cl)cc2[C@@](C#CC2CC2)(C(F)(F)F)O1 [EFV, efavirenz, reference compound]	440 ± 70 nM	290 ± 40 nM	> 6300 nM	7 nM	6 nM	102 ± 50 nM	–	–	–
N#Cc1ccc(Nc2ncc(CO)c(Oc3ccc(-c4ccncc4)cc3Cl)n2)cc1 [9k, 4-((4-(2-Chloro-4-(pyridin-4-yl)phenoxy)-5-(hydroxymethyl)pyrimidin-2-yl)amino)benzonitrile]	327 ± 54.8 nM	43000 nM	264000 ± 10200 nM	4.9 ± 0.9 nM	45.9 ± 5.9 nM	35.4 ± 12.3 nM	53,539	–	–

— paper PMC10372819 (Acta Pharmaceutica Sinica. B, 2023)
